Results reported in patent publication US12209071B2, “Triazine derivatives for treating diseases relating to neurotrophins” (AlzeCure Pharma AB, priority 2018, dated 2025).

Experiments:
[1] = target: T1, TrkC (Homo sapiens, UniProt Q16288); assay: Enzyme Fragment Complementation cell-based assay, TrkC; settings: U2OS-cells over-expressing TrkC; ligand 10 ng/mL; 3 hours incubation
T1 construct: expressed in transfected cells; host or cells: U2OS
Text: (§1) A high throughput cell-based screen has been used to identify positive modulators of TrkA, TrkB and TrkC. The screen involves the use of cell-based assay overexpressing TrkA, TrkB or TrkC. The purpose of the assay is to identify compounds that modulate neurotrophin signalling (Forsell et al 2012). The assay can be used in inhibitor mode using a high concentration of ligand, in modulator mode using an intermediate concentration and in agonist mode using a low concentration of ligand.
(§2) The assay uses Enzyme Fragment Complementation (EFC) technique, which is a proximity-based assay. Briefly, cells used in this assay over-express two fusion proteins, i.e. the receptor, which can be either one of TrkA, TrkB, TrkC, IGF1R or FGFR1, fused to a small peptide of beta-galactosidase and an adaptor protein, i.e. SHC1 (or any other Trk-adaptor protein) fused to the major part of beta-galactosidase. […] The proximity between the small activating peptide on the receptor and the major part of beta-galactosidase on the adaptor protein leads to an active beta-galactosidase enzyme. The activation of the receptor is quantified by measuring the amount of active beta-galactosidase by its conversion of a non-luminescent substrate into a luminescent product.
(§3) U2OS-cells, over-expressing TrkA or TrkB or TrkC, are plated in 96- or 384-well plates and incubated overnight. Alternatively, cryopreserved HEK293-cells expressing IGFR1 or cryopreserved U2OS-cells expressing FGFR1 were plated in 96- or 384-well plates. On the following day, test compound was pre-mixed with ligand (NGF, BDNF, NT-3, IGF-1 or basic fibroblast growth factor (bFGF(FGF-2))) and the ligand-compound mixture is then added to the cells to yield a final ligand concentration of 10 ng/mL. After 3 hours of incubation at room temperature, the incubation is stopped by the addition of a beta-galactosidase substrate mixture containing detergents. The substrate mixture is incubated for 60 minutes at ambient temperature. The luminescence is thereafter read by the use of a plate reader.

[2] = target: T2, TrkA (Homo sapiens, UniProt P04629); assay: Enzyme Fragment Complementation cell-based assay, TrkA; settings: U2OS-cells over-expressing TrkA; ligand 10 ng/mL; 3 hours incubation
T2 construct: expressed in transfected cells; host or cells: U2OS
Text: as §1, §2, §3

[3] = target: T3, TrkB (Homo sapiens, UniProt Q16620); assay: Enzyme Fragment Complementation cell-based assay, TrkB; settings: U2OS-cells over-expressing TrkB; ligand 10 ng/mL; 3 hours incubation
T3 construct: expressed in transfected cells; host or cells: U2OS
Text: as §1, §2, §3

T3 sequence (Q16620 32-822): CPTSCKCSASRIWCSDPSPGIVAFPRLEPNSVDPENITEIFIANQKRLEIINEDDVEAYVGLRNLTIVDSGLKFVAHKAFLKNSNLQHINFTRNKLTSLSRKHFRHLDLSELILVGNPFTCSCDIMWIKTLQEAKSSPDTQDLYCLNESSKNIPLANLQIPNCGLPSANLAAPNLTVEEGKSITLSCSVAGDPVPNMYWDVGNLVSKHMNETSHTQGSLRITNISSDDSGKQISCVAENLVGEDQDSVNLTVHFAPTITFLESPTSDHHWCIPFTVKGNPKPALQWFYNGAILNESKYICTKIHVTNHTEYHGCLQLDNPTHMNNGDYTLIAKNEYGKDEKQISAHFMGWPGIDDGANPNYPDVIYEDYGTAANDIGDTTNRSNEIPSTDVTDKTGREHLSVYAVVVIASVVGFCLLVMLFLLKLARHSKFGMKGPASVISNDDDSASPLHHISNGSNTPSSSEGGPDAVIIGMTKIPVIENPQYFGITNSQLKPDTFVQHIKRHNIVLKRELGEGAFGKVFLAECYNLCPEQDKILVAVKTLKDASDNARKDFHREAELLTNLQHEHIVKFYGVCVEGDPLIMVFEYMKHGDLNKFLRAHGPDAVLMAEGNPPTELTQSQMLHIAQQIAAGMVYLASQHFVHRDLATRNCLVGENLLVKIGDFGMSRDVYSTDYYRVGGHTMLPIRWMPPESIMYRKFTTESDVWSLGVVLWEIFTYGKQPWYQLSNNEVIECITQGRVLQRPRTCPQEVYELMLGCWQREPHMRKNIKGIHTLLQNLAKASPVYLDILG
T2 sequence (P04629 33-796): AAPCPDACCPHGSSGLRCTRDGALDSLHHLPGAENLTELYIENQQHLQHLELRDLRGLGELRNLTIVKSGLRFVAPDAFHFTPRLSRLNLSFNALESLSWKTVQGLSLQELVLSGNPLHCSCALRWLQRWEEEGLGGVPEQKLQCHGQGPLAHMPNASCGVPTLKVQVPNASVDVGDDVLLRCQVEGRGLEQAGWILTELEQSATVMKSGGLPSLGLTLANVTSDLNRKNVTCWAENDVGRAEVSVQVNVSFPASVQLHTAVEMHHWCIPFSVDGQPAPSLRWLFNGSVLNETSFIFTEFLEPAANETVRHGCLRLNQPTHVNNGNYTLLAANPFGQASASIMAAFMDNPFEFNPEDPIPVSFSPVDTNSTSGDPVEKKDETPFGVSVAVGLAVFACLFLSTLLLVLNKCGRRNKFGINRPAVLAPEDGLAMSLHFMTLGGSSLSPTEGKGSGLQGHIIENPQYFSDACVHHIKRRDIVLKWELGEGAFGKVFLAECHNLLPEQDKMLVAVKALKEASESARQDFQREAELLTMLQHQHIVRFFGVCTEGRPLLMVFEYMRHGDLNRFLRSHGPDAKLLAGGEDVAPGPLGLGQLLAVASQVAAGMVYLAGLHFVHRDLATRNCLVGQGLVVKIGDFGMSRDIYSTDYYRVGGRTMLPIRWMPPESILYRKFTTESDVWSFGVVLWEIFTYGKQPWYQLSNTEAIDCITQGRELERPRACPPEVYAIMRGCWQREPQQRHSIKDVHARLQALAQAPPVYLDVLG
T1 sequence (Q16288 32-839): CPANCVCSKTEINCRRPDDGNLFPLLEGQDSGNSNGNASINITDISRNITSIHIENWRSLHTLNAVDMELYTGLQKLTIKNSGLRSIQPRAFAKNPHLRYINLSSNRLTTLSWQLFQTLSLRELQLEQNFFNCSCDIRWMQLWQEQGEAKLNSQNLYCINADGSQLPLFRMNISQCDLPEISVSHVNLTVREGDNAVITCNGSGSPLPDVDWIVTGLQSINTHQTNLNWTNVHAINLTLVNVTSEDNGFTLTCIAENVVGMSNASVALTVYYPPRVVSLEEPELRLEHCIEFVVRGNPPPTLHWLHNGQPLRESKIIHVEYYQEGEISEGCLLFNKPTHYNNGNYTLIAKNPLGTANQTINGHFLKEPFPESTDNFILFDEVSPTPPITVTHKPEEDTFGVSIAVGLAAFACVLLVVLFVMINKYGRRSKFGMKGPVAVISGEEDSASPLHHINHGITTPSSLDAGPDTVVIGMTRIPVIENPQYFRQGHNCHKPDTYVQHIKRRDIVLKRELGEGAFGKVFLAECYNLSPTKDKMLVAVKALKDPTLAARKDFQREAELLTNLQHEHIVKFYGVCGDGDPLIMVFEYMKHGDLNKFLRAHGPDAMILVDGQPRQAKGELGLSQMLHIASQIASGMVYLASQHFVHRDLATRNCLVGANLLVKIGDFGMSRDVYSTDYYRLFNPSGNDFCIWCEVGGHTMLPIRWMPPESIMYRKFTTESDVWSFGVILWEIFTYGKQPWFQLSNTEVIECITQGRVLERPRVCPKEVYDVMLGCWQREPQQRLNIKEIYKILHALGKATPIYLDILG

SMILES	EC50 [1]	EC50 [2]	EC50 [3]
O=c1[nH]c(=O)n(-c2ccc(Oc3ccccc3)c(Cl)c2)c(=O)n1-c1ccccc1 [Example 39, 1-(3-chloro-4-phenoxyphenyl)-3-phenyl-1,3,5-triazinane-2,4,6-trione]	880 nM	1400 nM	680 nM
CCOc1cc(-n2c(=O)[nH]c(=O)n(C)c2=O)ccc1Oc1ccccc1 [Example 21, 1-(3-ethoxy-4-phenoxyphenyl)-3-methyl-1,3,5-triazinane-2,4,6-trione]	1200 nM	2100 nM	2300 nM
Cn1c(=O)[nH]c(=O)n(-c2ccc(Oc3ccccc3)c(OCc3ccccc3)c2)c1=O [Example 30, 1-[3-(benzyloxy)-4-phenoxyphenyl]-3-methyl-1,3,5-triazinane-2,4,6-trione]	890 nM	1100 nM	7500 nM
Cc1cc(-n2c(=O)[nH]c(=O)n(-c3cnn(-c4ccccc4)c3)c2=O)ccc1Oc1ccccc1 [Example 68, 1-(3-methyl-4-phenoxyphenyl)-3-(1-phenyl-1H-pyrazol-4-yl)-1,3,5-triazinane-2,4,6-trione]	1100 nM	230 nM	360 nM
Cc1cc(-n2c(=O)[nH]c(=O)n(-c3cccc4[nH]ccc34)c2=O)ccc1Oc1ccccc1 [Example 49, 1-(1H-indol-4-yl)-3-(3-methyl-4-phenoxyphenyl)-1,3,5-triazinane-2,4,6-trione]	2000 nM	190 nM	790 nM
O=c1[nH]c(=O)n(-c2ccc(Oc3ccccc3)c(OCC3COC3)c2)c(=O)n1-c1ccccc1 [Example 25, 1-[3-(oxetan-3-ylmethoxy)-4-phenoxyphenyl]-3-phenyl-1,3,5-triazinane-2,4,6-trione]	1000 nM	550 nM	790 nM
Cn1c(=O)[nH]c(=O)n(-c2ccc(Oc3ccccc3)c(OC3CCCC3)c2)c1=O [Example 15, 1-[3-(cyclopentyloxy)-4-phenoxyphenyl]-3-methyl-1,3,5-triazinane-2,4,6-trione]	1100 nM	590 nM	650 nM
Cn1c(=O)[nH]c(=O)n(-c2ccc(Oc3ccc(Cl)cc3)cc2)c1=O [Example 64, 1-[4-(4-chlorophenoxy)phenyl]-3-methyl-1,3,5-triazinane-2,4,6-trione]	9600 nM	4400 nM	5900 nM
Cc1ccc(-n2c(=O)[nH]c(=O)n(-c3ccc(Oc4ccccc4)c(C)c3)c2=O)cc1 [Example 41, 1-(3-methyl-4-phenoxyphenyl)-3-(4-methylphenyl)-1,3,5-triazinane-2,4,6-trione]	140 nM	250 nM	210 nM
COCCOc1cc(-n2c(=O)[nH]c(=O)n(C)c2=O)ccc1Oc1ccccc1 [Example 28, 1-[3-(2-methoxyethoxy)-4-phenoxyphenyl]-3-methyl-1,3,5-triazinane-2,4,6-trione]	520 nM	1000 nM	990 nM
Cc1cc(-n2c(=O)[nH]c(=O)n(-c3ccccc3)c2=O)ccc1Sc1ccccc1 [Example 34, 1-[3-methyl-4-(phenylsulfanyl)phenyl]-3-phenyl-1,3,5-triazinane-2,4,6-trione]	1200 nM	1600 nM	2000 nM
Cc1cn(-c2ccccc2)c2ccc(-n3c(=O)[nH]c(=O)n(-c4ccccc4)c3=O)cc12 [Example 35, 1-(3-Methyl-1-phenyl-1H-indol-5-yl)-3-phenyl-1,3,5-triazinane-2,4,6-trione]	500 nM	980 nM	260 nM
COCCOc1cc(-n2c(=O)[nH]c(=O)n(-c3cccc(C)c3)c2=O)ccc1Oc1ccccc1 [Example 57, 1-[3-(2-methoxyethoxy)-4-phenoxyphenyl]-3-(3-methylphenyl)-1,3,5-triazinane-2,4,6-trione]	90 nM	180 nM	120 nM
O=c1[nH]c(=O)n(-c2ccc(Oc3ccccc3)c(OC3CCCC3)c2)c(=O)n1-c1ccccc1 [Example 23, 1-[3-(cyclopentyloxy)-4-phenoxyphenyl]-3-phenyl-1,3,5-triazinane-2,4,6-trione]	770 nM	1000 nM	920 nM
Cc1cn(-c2ccccc2)c2ccc(-n3c(=O)[nH]c(=O)n(C)c3=O)cc12 [Example 37, 1-methyl-3-(3-methyl-1-phenyl-1H-indol-5-yl)-1,3,5-triazinane-2,4,6-trione]	40 nM	390 nM	
Cc1cc(-n2c(=O)[nH]c(=O)n(-c3ccc4c(c3)OCO4)c2=O)ccc1Oc1ccccc1 [Example 48, 1-(2H-1,3-benzodioxol-5-yl)-3-(3-methyl-4-phenoxyphenyl)-1,3,5-triazinane-2,4,6-trione]		500 nM	260 nM
COCCOc1cc(-n2c(=O)[nH]c(=O)n(-c3ccc(C)s3)c2=O)ccc1Oc1ccccc1 [Example 66, 1-[3-(2-methoxyethoxy)-4-phenoxyphenyl]-3-(5-methylthiophen-2-yl)-1,3,5-triazinane-2,4,6-trione]		370 nM	370 nM
Cc1ccc(-n2c(=O)[nH]c(=O)n(-c3cnc(Oc4ccccc4)c(C)c3)c2=O)cc1 [Example 78, 1-(5-Methyl-6-phenoxypyridin-3-yl)-3-(p-tolyl)-1,3,5-triazinane-2,4,6-trione]		3510 nM	3830 nM
COc1c(-n2c(=O)[nH]c(=O)n(-c3ccccc3)c2=O)ccc(Oc2ccccc2)c1C [Example 33, 1-(2-methoxy-3-methyl-4-phenoxyphenyl)-3-phenyl-1,3,5-triazinane-2,4,6-trione]		230 nM	100 nM
Cc1cc(-n2c(=O)[nH]c(=O)n(-c3cccc(Cl)c3)c2=O)ccc1Oc1ccccc1 [Example 43, 1-(3-chlorophenyl)-3-(3-methyl-4-phenoxyphenyl)-1,3,5-triazinane-2,4,6-trione]		160 nM	120 nM
Cc1cc(-n2c(=O)[nH]c(=O)n(-c3ccccn3)c2=O)ccc1Oc1ccccc1 [Example 18, 1-(3-methyl-4-phenoxyphenyl)-3-(pyridin-2-yl)-1,3,5-triazinane-2,4,6-trione]		870 nM	140 nM
COc1cc(Oc2ccccc2)c(C)cc1-n1c(=O)[nH]c(=O)n(-c2ccccc2)c1=O [Example 13, 1-(2-methoxy-5-methyl-4-phenoxyphenyl)-3-phenyl-1,3,5-triazinane-2,4,6-trione]		620 nM	450 nM
Cc1cc(-n2c(=O)[nH]c(=O)n(-c3cscn3)c2=O)ccc1Oc1ccccc1 [Example 63, 1-(3-methyl-4-phenoxyphenyl)-3-(1,3-thiazol-4-yl)-1,3,5-triazinane-2,4,6-trione]		2380 nM	950 nM
COc1ccc(-n2c(=O)[nH]c(=O)n(-c3ccc(Oc4ccccc4)c(OC)c3)c2=O)cc1 [Example 53, 1-(3-methoxy-4-phenoxyphenyl)-3-(4-methoxyphenyl)-1,3,5-triazinane-2,4,6-trione]		960 nM	780 nM
COCCOc1cc(-n2c(=O)[nH]c(=O)n(-c3ccc(OC)cc3)c2=O)ccc1Oc1ccccc1 [Example 60, 1-[3-(2-methoxyethoxy)-4-phenoxyphenyl]-3-(4-methoxyphenyl)-1,3,5-triazinane-2,4,6-trione]		300 nM	220 nM
